In patent publication US20090191193A1, “Aryl Vinyl Sulfides, Sulfones, Sulfoxides and Sulfonamides, Derivatives Thereof and Therapeutic Uses Thereof” (TEMPLE UNIVERSITY-OF THE COMMONWEALTH SYSTEM OF HIGHER …, priority 2006, published 2009):

What was measured:
[1] = test system: K562 (chronic myelogenous leukaemia); assay: Effect on tumor cell lines, viable cell count by trypan blue exclusion (Latham et al.): K562; assay type: cell-based; settings: K562 chronic myelogenous leukaemia cells, viable cell count 96 hours after treatment
Procedure: (§1) The effect of the compounds of the invention on tumor cells was determined by the assay described by Latham et al., Oncogene 12:827-837 (1996). Tumor cells DU145 (prostate cancer), K562 (chronic myelogenous leukaemia), BT20 (breast carcinoma), H157 (non small cell lung carcinoma), or DLD1 (colon carcinoma) were plated in 6-well dishes at a cell density of 1.0×10^5 cells per 35-mm^2 well. […] The total number of viable cells was determined 96 hours later by trypsinizing the wells and counting the number of viable cells, as determined by trypan blue exclusion, using a hemacytometer. Normal HFL cells were treated with the same compounds under the same conditions of concentration and time.

[2] = test system: DU145 (prostate cancer); assay: Effect on tumor cell lines, viable cell count by trypan blue exclusion (Latham et al.): DU145; assay type: cell-based; settings: DU145 prostate cancer cells, viable cell count 96 hours after treatment
Procedure: as §1

Compound | IC50 ([1]; Homo sapiens, K562, 96 h) [µM] | melting point [°C] | IC50 ([2]; Homo sapiens, DU-145, 96 h) [µM] | IC50 [1] [µM] | IC50 [2] [µM]
COc1ccc(CS(=O)(=O)/C(C#N)=C/c2c(F)c(F)c(F)c(F)c2F)cc1 [Example 11] | 1 | 110 to 112 | 25 | – | –
Cc1ccoc1/C=C(\C#N)S(=O)(=O)Cc1ccc(Cl)cc1Cl [Example 103] | 50 to 100 | 184 to 189 | > 100 | – | –
COc1ccc(NS(=O)(=O)/C(C#N)=C/c2ccc(SC)cc2)cc1 [Example 293] | – | – | – | > 100 | > 100
Cc1ccc(NS(=O)(=O)/C(C#N)=C/c2ccc(-c3ccccc3)cc2)c(C)c1 [Example 260] | – | – | – | 25 to 50 | 50 to 100
N#C/C(=C\c1ccc(-c2ccccc2)cc1)S(=O)(=O)Nc1ccc(F)cc1 [Example 239] | – | – | – | 10 to 25 | 50 to 100
COc1ccc(CS(=O)(=O)/C(=C/c2c(OC)cc(OC)cc2OC)[N+](=O)[O-])cc1 [Example 188] | 2 | – | < 1 | – | –
COc1cc(OC)c(/C=C(\[N+](=O)[O-])S(=O)(=O)Cc2ccc(F)cc2)c(OC)c1 [Example 189] | 5 | – | 2.5 | – | –
COc1ccc(CS(=O)(=O)/C(C#N)=C/c2ccc(-c3ccccc3)cc2)cc1 [Example 140] | – | – | – | > 100 | > 100
CCOC(=O)c1c(C)[nH]c(/C=C(\C#N)S(=O)(=O)Cc2ccc(F)cc2)c1C [Example 37, (E)-2-[(4-fluorophenyl)methanesulfonyl]-3-(4-ethoxycarbonyl-3,5-dimethylpyrrol-2-yl)acrylonitrile] | 50 to 100 | – | 50 to 100 | – | –
CSc1ccc(/C=C(\C#N)S(=O)(=O)Nc2ccc(C)cc2C)cc1 [Example 276] | – | – | – | > 100 | > 100
COc1ccc(NS(=O)(=O)/C(C#N)=C/c2ccc(-c3ccccc3)cc2)cc1 [Example 286] | – | – | – | 50 to 100 | 50 to 100
N#C/C(=C\c1ccc(-c2ccccc2)cc1)S(=O)(=O)Nc1ccc(Br)cc1 [Example 220] | – | – | – | 10 to 25 | 50 to 100

Other lines, results leading:

IC50 ([1]; Homo sapiens, K562, 96 h) [µM] | melting point [°C] | IC50 ([2]; Homo sapiens, DU-145, 96 h) [µM] | IC50 [1] [µM] | IC50 [2] [µM] | Compound
> 100 | 159 to 163 | > 100 | – | – | N#C/C(=C\c1ccccc1Cl)S(=O)(=O)Cc1ccc(F)cc1 [Example 145]
> 100 | 165 to 170 | > 100 | – | – | COc1ccc(/C=C(\C#N)S(=O)(=O)Cc2ccc(Cl)cc2Cl)c(OC)c1 [Example 111]
50 to 100 | 118 to 120 | 50 to 100 | – | – | N#C/C(=C\c1ccc(F)c(Cl)c1)S(=O)(=O)Nc1ccc(F)cc1 [Example 245]
25 to 50 | 136 to 138 | 50 to 100 | – | – | COc1ccc(CS(=O)(=O)/C(C#N)=C/c2ccc(Cl)c(Cl)c2Cl)cc1 [Example 146]
> 100 | 171 to 176 | > 100 | – | – | N#C/C(=C\c1ccccc1O)S(=O)(=O)Cc1ccc(Cl)cc1 [Example 121]
10 to 25 | 152 to 156 | 50 to 100 | – | – | COc1cc(/C=C(\C#N)S(=O)(=O)Cc2ccccc2)cc(OC)c1 [Example 134]
50 to 100 | 133 to 135 | > 100 | – | – | COc1ccc(NS(=O)(=O)/C(C#N)=C/c2ccccc2OC)cc1 [Example 204]
– | – | – | 50 to 100 | > 100 | Cc1ccsc1/C=C(\C#N)S(=O)(=O)Cc1ccc(Cl)cc1Cl [Example 102]
– | – | – | 25 to 50 | 25 to 50 | CSc1ccc(/C=C(\C#N)S(=O)(=O)Cc2ccc(F)cc2)cc1 [Example 87]
– | – | – | 25 to 50 | 50 to 100 | Cc1ccsc1/C=C(\C#N)S(=O)(=O)Cc1ccc(Cl)cc1 [Example 120]
– | – | – | > 100 | > 100 | Cc1ccsc1/C=C(\C#N)S(=O)(=O)Cc1ccccc1 [Example 127]
– | – | – | 50 to 100 | > 100 | CSc1ccc(/C=C(\C#N)S(=O)(=O)Cc2ccc(Cl)cc2)cc1 [Example 43]
– | – | – | 50 to 100 | 50 to 100 | CSc1ccc(/C=C(\C#N)S(=O)(=O)Cc2ccc(Cl)cc2Cl)cc1 [Example 76]
